Data set [1] concerns adipose-derived mesenchymal stem cells (AdMSCs) treated with TGFβ1. Nature of the data set: Adipogenic and fibrogenic gene expression (RT-PCR) in AdMSCs treated with TGFβ1 with or without rosiglitazone. The format is cell-based, mouse. The following applies: TGFβ1 10 ng/ml + rosiglitazone 10 μM, 7 days, v. TGFβ1 without rosiglitazone. As to the method:
Previous studies have established that PPARg agonists reverse the effects of pro-fibrotic transforming growth factor-beta (TGFβ) ligands.
Mice adipose-derived stem cells (ADSCs) were isolated from adult male C57BL/6J mice inguinal fat pad. ADSCs were cultured in DMEM/F12 (Sigma, Logan, UT) supplemented with 10% Fetal Bovine Serum (FBS) (Sigma) and antibiotics (penicillin and streptomycin, Hyclone). ADSCs were maintained at 37° C. under a 5% CO2 atmosphere. For rosiglitazone treatment experiment, ADSCs were treated with/without recombinant TGFβ1 (10 ng/ml) (Invitrogen, USA) and rosiglitazone (10 μM) for 7 days after seeded ([…]) in 6-well plates.
Total RNA was isolated from ADSCs using TRI reagent and RNA extraction kit (Zymo Research, Irvine, CA). First-strand cDNA was synthesized by using iScript RT-PCR mix (BioRad, Hercules, CA) according to user manual. SYBR green qPCR master Mix (BioRad, Hercules, CA), primers, and cDNA were mixed in a final reaction volume of 10 μl. Real time polymerase chain reaction (RT-PCR) were performed by using Applied Biosystems 7300 Fast Real-Time PCR System (AB) according to the manufacturer's instructions.

The test system of another data set is PDGFRα+ cells. Nature of the data set: Flow cytometry of hindlimb skin after lymphadenectomy. The format is in vivo, mouse. As to the method: (§1) A total of 32 mice underwent lymphedema surgery were randomly assigned into two groups, lymphedema group and rosiglitazone group (n=16). Rosiglitazone (Combi-Blocks, San Diego, USA) was dissolved in DMSO at the concentration of 25 mg/ml, and was diluted in corn oil to the final concentration of 2.5 mg/ml before injection. Mice in rosiglitazone group were intraperitoneally injected with rosiglitazone (10 mg/kg) twice a week from the day of surgery (day 0, 3, 7, 10, 14, 17). Mice in lymphedema group were injected with corn oil only at same time point. 8 mice in lymphedema group and rosiglitazone group were sacrificed on day 7 (n=8 per group), the rest of them were sacrificed on day 21 (n=8 per group). Another 18 mice were randomly divided into three groups, normal control group, lymphedema group, and rosiglitazone group, skin cells from these mice were isolated and used for flow cytometry analysis at day 7 (n=3 per group per staining).
Flow cytometry was performed using single-cell suspensions obtained from skin and subcutaneous tissue. 1×1 cm tissue harvested from the mice hindlimb were minced with scissors and digested by using collagenase type I (1 mg/ml) and dispase (2 mg/ml) at 37° C. on a shaker. All suspensions were filtered through 100 μm filters.
Cells were then stained with following conjugated antibodies: APC-PDGFRα (1:100), APC-PDGFRβ (1:100), HCS LipidTOX red neutral lipid stains (1:200), APC-CD45 (1:150), PE-CD3 (1:150), PerCP-Cy5-CD4 (1:150). Flow cytometry was performed on the Beckman Cytoflex FCM using CytExpert software (Beckman Coulter, CA, USA) and data were analyzed with FlowJo software (Tree Star; Ashland, OR).

For data set [2] the following is noted: systemic rosiglitazone [Ref. 20,21]; cited from earlier work.
The subject of data set [3] is hindlimb secondary lymphedema after lymphadenectomy. Description: Mouse hind limb lymphedema model (lymphadenectomy): limb measurements and histology. It is filed as in vivo. The note with it: rosiglitazone 10 mg/kg i.p. twice a week; for Dermal thickness / Overall skin thickness / Subdermal layer (fibroadipose tissue) thickness: H&E.
Text: Evans blue (Sigma) (4% in PBS) was filtered and injected into mouse foot pad to stain lymph nodes in hind limb. Mouse hind limb secondary lymphedema was induced by surgical excision of the ipsilateral superficial inguinal, popliteal, deep inguinal lymph nodes, and the femoral lymphatic vessel. During surgical procedures, electrocauterization were used to prevent bleeding.
as §1
Sacrifice was performed via CO2 asphyxiation. Skin and muscle of hind limb were harvested, fixed in 10% formalin for 48 h followed by 70% ethanol for histological assessment. Formalin-fixed tissues were then dehydrated, embedded in paraffin, and sectioned with 5-micron-thickness.
Sections were stained either with Hematoxylin and Eosin (H&E) or Picrosirius Red according to standard protocol, and used to assess the overall skin thickness, dermal thickness, fibroadipose tissue thickness, and fibrosis, respectively. Quantitative histological analysis was performed using samples from day 7 and 21.
Images were captured by using Olympus BX53 (UCMAD3, T7, Japan) and all-in-one Keyence (Itasca, IL, USA) microscopes and assessed by ImageJ (version 1.52a; […]) by two independent researchers under blinded conditions. Fibrosis was assessed with the image thresholding plugin in ImageJ software, normalization is based on the length of the section (v1.52a; […]).

[4] abbreviates: 1 cm×1 cm area of skin, day 7 after lymphadenectomy.
[5] abbreviates: 1 week after lymphadenectomy, normalized to uninjured hindlimb.

As to `CN(CCOc1ccc(CC2SC(=O)NC2=O)cc1)c1ccccn1` (stereo not shown) [rosiglitazone], in data set [1], the Adipoq expression level was 2.40, the Col1a1 expression level was found to be 0.76, the Ctgf expression level is given as 0.80 and the Fn1 expression level is recorded as 0.82. In data set [1], the Lpl expression level amounted to 2.53 and the Pdgfra expression level is reported as 0.72. Moreover, in the data set on PDGFRα+ cells (setting [4]), the “Absolute number of PDGFRα+LipidTOX+ cells” value is given as 862; the “FSC^high PDGFRα+LipidTOX+ cells (cell size)” value is 73; the “PDGFRα+ cells, absolute count” value is recorded as 0.9×10^3. For the same compound, the “PDGFRα+LipidTOX+ cells as a proportion of total PDGFRα cells” value with PDGFRα+ cells (day 7 after lymphadenectomy, results section) came to 86%. In the data set with PDGFRα+ cells (rosiglitazone-treated samples), the “Share of PDGFRα+ cells that were LipidTOX+” value is reported as “over 90%”. Besides, the Adverse effects entry in data set [2] was “fluid retention, heart failure, and fractures”. In data set [3] (setting [5]), this compound came in with a Normalized edema size of 1.08 and a Normalized hindlimb circumference of 1.31. In data set [3] (1 week), the Dermal thickness is 438.54, the Overall skin thickness is 924.66 μm, the “Subdermal layer (fibroadipose tissue) thickness” value came out at 486.12 μm and the “Normalized hindlimb fibrosis (picrosirius red)” value came to 0.130. In data set [3] (3 week), the Dermal thickness stood at 403.76, the Overall skin thickness was 646.12 μm, the “Subdermal layer (fibroadipose tissue) thickness” value amounted to 242.36 μm and the “Normalized hindlimb fibrosis (picrosirius red)” value is on record as 0.128.

(Values after patent US20250352528A1, “TOPICAL ROSIGLITAZONE FOR RADIATION-INDUCED SKIN INJURY” (The Brigham and Women's Hospital, Inc., priority 2022, published 2025).)
